Measurements published in patent publication US20160237402A1, “Methods and Compositions for Ex Vivo Generation of Developmentally Competent Eggs from Germ Line Cells Using Autologous Cell Systems” (NORTHEASTERN UNIVERSITY, priority 2013, published 2016).

Tests used:
[1] = system: FACS-purified Fox12-DsRed-positive cells; assay: Estradiol and progesterone production by FACS-purified Fox12-DsRed-positive cells (ELISA of culture medium); assay type: cell-based, mouse; settings: FSH 100 ng/ml or 8-br-cAMP 1 mM; cultured 24, 48 or 72 hours; versus vehicle (PBS) control; cells isolated on day 12 of ESC differentiation
Procedure: (§1) FIG. 5A is a graph showing estradiol production by FACS-purified Fox12-DsRed positive cells (2×10^3 cells per well), which spontaneously differentiated in embryonic stem cell cultures, maintained in culture for up to 3 days (FSH, 100 ng/ml; 8-br-cAMP, 1 mM). Data are the mean±SEM of 3 independent cultures (*, P<0.05 versus vehicle control).
as §1, with “5B” for “5A”, “progesterone” for “estradiol”
To identify and track ovarian somatic cells in differentiating ESC cultures, the expression of the early granulosa cell marker, Fox12, in differentiating ESC cultures was mapped. […] A 739 by region of the Fox12 gene promoter was identified using Genome Vista. The region was isolated from mouse genomic DNA and cloned into the pDsRed2-1 vector (Clontech, Mountain View, Calif.,) or the pLenti6 lentiviral construct containing the complete open reading frame of DsRed (Gateway Lentiviral System; Invitrogen), thus creating a DsRed expression vector under control of the Fox12 gene promoter.
Promoter activity and specificity were verified using mouse granulosa cells as a positive control and 293 cells (Invitrogen) as a negative control. To verify the Fox12 gene promoter-driven DsRed expression, undifferentiated TgOG2 ESCs were stably transfected with the Fox12-pDsRed2-1 construct via electroporation, followed by clonal selection and expansion. Alternatively, ESCs were virally transduced following initiation of differentiation using viral supernatant produced by 293 cells transfected with the Fox12-DsRed lentiviral construct (pLenti6-Fox12-DsRed). Cells were analyzed for expression of DsRed by fluorescence microscopy and isolated by fluorescence-activated cell sorting (FACS).
For FACS, differentiating ESCs were removed from the plate by either 0.25% trypsin-EDTA (prior to day 10 of differentiation) or manually scraped. […] The cells were analyzed and sorted using a FACS Aria flow cytometer (BD Biosciences, San Jose, Calif.).
Estradiol and progesterone concentrations were measured in culture medium from FACS-purified Fox12-DsRed-positive cells that had been re-plated and cultured for 24, 48 or 72 hours in the presence of PBS (vehicle), 100 ng/ml follicle stimulating hormone (FSH; NIDDK, NIH, Bethesda, Md.) or 1 mM 8-bromoadenosine-3′,5′-cyclic monophosphate (8-br-cAMP; Sigma-Aldrich). […]

[2] = system: OSC differentiation into oocytes; assay: GCV treatment of transgenic mice with Stra8 promoter-driven HSVtk; counts of oocyte-containing primordial follicles; assay type: in vivo
Procedure: FIGS. 2A-D are graphs that show the OSCs of aged mice lose the ability to support primordial follicle formation. Transgenic mice, ranging from 2-11 months, having an inducible “suicide gene” (herpes simplex virus thymidine kinase or HSVtk) that specifically disrupts OSC differentiation into oocytes only in the presence of the HSVtk pro-drug ganciclovir (GCV), were tested for their ability to lose and regain their oocyte reserves after activation and deactivation of the suicide gene, respectively.
Animals and treatments. Transgenic pStra8-Gfp mice with expression of green fluorescent protein (GFP) driven by the promoter of the meiosis commitment gene, stimulated by retinoic acid gene 8 (Stra8;) mice were generated as described in Imudia et al., Fertil Steril, 100:1451-1458 (2013). Transgenic mice with herpes simplex virus thymidine kinase (HSVtk) expression driven by the Stra8 promoter were generated by replacing the GFP-coding sequence in the pStra8-Gfp construct with cDNA encoding GFP-fused HSVtk and the constructs were then sent to Genoway for generation of the transgenic lines, as described (Imudia et al., Fertil Steril, 100:1451-1458 (2013). For comparative studies, wild type and transgenic siblings from breeding colonies were used in parallel to rule out any potential effect of background strain on the outcomes. For treatments, the HSVtk pro-drug, ganciclovir (GCV; Roche), was dissolved in sterile water at 10 mg/ml, and then diluted in sterile 1×-concentrated phosphate-buffered saline (PBS) for daily dosing (10 mg/kg for 21 days, intraperitoneal injection). Control animals were injected with vehicle (PBS) in parallel.
Oocyte counts. Prior to the start of PBS or GCV injections, 21 days after daily dosing with GCV, and 21 days after ceasing GCV treatment, ovaries were collected from mice at the indicated ages, fixed, embedded in paraffin, and serially sectioned for histomorphometry-based quantification of the number of oocyte-containing primordial follicles, as detailed (Jones and Krohn, J Endocrinol, 21:469-495 (1961); Johnson et al., Nature, 428:145-150 (2004); and Wang and Tilly, Cell Cycle, 9:339-349 (2010)). All samples were assessed in a completely blinded fashion, and reproducibility was independently confirmed with randomly selected slides by a second observer. In all cases, variation in counts between observers was less than 7%.

| Compound | estradiol production [1] | progesterone production [1] | response of primordial follicle pool to GCV treatment ([2]; advanced aged mice, 10-11 months of age, 10 mg/kg daily for 21 days, intraperitoneal) | primordial follicle reserve after GCV treatment ([2]; middle-age adult mice, 5-6 months of age, 10 mg/kg daily for 21 days, intraperitoneal) | time for primordial follicle pool to regenerate back to control (PBS, vehicle) levels after ceasing GCV treatment ([2]; young adult (2-3 months) and middle-age (5-6 months) mice) [days] | primordial follicle reserve after GCV treatment ([2]; young adult mice, 2-3 months of age, 10 mg/kg daily for 21 days, intraperitoneal) |
| --- | --- | --- | --- | --- | --- | --- |
| follicle stimulating hormone [FSH] | significant increase | only 8-br-cAMP was able to significantly enhance |  |  |  |  |
| Nc1nc(O)c2ncn(COC(CO)CO)c2n1 [GCV, ganciclovir] |  |  | completely refractory | reduced primordial follicle reserve | ≤ 21 | reduced primordial follicle reserve |
| Nc1ncnc2c1nc(Br)n2[C@@H]1O[C@@H]2COP(=O)(O)O[C@H]2[C@H]1O [8-br-cAMP, 8-bromoadenosine-3′,5′-cyclic monophosphate] | significant increase | significantly enhance |  |  |  |  |
